From ChEMBL document CHEMBL4507276 (2021)

Key:
[1] = target: Atypical kinase COQ8A, mitochondrial (Homo sapiens) (UniProt Q8NI60); details: Compound concentration 1000.0 nM
[2] = target: Bone morphogenetic protein receptor type-1B (Homo sapiens) (UniProt O00238); details: Compound concentration 1000.0 nM
[3] = target: Calcium/calmodulin-dependent protein kinase type II subunit beta (Homo sapiens) (UniProt Q13554); details: Compound concentration 1000.0 nM
[4] = target: T1, Serine/threonine-protein kinase Chk1 (Homo sapiens) (UniProt O14757); details: Compound concentration 1000.0 nM
T1 sequence (whole entry): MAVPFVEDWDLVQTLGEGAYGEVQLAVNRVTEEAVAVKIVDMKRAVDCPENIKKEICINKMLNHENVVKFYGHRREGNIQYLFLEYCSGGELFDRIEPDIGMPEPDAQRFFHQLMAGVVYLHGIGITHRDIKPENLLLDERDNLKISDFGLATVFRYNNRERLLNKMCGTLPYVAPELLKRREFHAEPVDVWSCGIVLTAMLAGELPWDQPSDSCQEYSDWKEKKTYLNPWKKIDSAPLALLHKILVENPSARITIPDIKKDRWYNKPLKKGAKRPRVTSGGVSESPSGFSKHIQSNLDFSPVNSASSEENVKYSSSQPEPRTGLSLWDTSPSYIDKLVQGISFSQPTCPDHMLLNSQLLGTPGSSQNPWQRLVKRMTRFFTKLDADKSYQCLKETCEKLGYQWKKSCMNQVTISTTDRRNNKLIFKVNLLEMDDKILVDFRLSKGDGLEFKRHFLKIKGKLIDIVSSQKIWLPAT

[5] = target: Mitogen-activated protein kinase 4 (Homo sapiens) (UniProt P31152); details: Compound concentration 1000.0 nM
[6] = target: Interleukin-1 receptor-associated kinase 1 (Homo sapiens) (UniProt P51617); details: Compound concentration 1000.0 nM
[7] = target: Mast/stem cell growth factor receptor Kit (Homo sapiens) (UniProt P10721); details: Compound concentration 1000.0 nM
[8] = target: T2, Mitogen-activated protein kinase kinase kinase kinase 2 (Homo sapiens) (UniProt Q12851); details: Compound concentration 1000.0 nM
T2 sequence (whole entry): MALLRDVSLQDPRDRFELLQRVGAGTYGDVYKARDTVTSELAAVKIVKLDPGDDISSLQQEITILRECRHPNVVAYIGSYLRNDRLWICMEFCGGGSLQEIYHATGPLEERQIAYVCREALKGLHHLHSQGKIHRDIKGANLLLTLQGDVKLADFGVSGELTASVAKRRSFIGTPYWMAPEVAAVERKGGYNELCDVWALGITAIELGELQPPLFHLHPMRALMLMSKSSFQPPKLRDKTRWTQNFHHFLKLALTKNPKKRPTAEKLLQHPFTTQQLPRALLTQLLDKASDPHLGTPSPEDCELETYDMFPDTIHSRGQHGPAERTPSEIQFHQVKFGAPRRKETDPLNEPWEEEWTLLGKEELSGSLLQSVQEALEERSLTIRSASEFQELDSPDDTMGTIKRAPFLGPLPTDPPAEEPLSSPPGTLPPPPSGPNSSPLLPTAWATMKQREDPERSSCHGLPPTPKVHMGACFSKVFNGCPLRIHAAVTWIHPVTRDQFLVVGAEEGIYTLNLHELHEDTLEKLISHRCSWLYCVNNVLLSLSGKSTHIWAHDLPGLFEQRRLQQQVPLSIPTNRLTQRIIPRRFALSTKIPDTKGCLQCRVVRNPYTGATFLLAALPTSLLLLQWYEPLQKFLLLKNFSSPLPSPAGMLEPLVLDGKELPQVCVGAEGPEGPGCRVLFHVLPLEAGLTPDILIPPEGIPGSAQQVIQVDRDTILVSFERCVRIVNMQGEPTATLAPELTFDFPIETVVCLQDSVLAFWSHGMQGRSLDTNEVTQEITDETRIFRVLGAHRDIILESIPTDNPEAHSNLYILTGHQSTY

[9] = target: Dual specificity mitogen-activated protein kinase kinase 4 (Homo sapiens) (UniProt P45985); details: Compound concentration 1000.0 nM
[10] = target: Platelet-derived growth factor receptor beta (Homo sapiens) (UniProt P09619); details: Compound concentration 1000.0 nM
[11] = target: Phosphorylase b kinase gamma catalytic chain, skeletal muscle/heart isoform (Homo sapiens) (UniProt Q16816); details: Compound concentration 1000.0 nM
[12] = system: Phosphatidylinositol 4,5-bisphosphate 3-kinase catalytic subunit alpha isoform (Homo sapiens), P42336 [E542K]; details: Compound concentration 1000.0 nM
[13] = target: Phosphatidylinositol 5-phosphate 4-kinase type-2 gamma (Homo sapiens) (UniProt Q8TBX8); details: Compound concentration 1000.0 nM
[14] = target: Serine/threonine-protein kinase 36 (Homo sapiens) (UniProt Q9NRP7); details: Compound concentration 1000.0 nM
[15] = target: 5-hydroxytryptamine receptor 1D (Homo sapiens) (UniProt P28221); details: Compound concentration 10.0 uM
[16] = target: T3, Alpha-1A adrenergic receptor (Homo sapiens) (UniProt P35348); details: Compound concentration 10.0 uM
T3 sequence (whole entry): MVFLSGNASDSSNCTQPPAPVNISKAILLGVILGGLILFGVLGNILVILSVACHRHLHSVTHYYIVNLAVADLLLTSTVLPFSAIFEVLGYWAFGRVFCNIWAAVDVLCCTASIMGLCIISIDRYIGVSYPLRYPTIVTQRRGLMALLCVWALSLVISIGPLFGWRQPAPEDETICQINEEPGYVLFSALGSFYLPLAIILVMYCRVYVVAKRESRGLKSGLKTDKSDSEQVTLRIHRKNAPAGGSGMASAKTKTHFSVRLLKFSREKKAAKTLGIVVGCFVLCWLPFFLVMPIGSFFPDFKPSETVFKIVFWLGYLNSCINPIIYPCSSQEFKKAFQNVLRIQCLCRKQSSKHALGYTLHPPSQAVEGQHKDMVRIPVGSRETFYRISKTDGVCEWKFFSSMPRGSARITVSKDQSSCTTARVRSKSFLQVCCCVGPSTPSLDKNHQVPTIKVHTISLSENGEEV

Sequence of Mitogen-activated protein kinase 4 (Homo sapiens) (P31152 whole entry): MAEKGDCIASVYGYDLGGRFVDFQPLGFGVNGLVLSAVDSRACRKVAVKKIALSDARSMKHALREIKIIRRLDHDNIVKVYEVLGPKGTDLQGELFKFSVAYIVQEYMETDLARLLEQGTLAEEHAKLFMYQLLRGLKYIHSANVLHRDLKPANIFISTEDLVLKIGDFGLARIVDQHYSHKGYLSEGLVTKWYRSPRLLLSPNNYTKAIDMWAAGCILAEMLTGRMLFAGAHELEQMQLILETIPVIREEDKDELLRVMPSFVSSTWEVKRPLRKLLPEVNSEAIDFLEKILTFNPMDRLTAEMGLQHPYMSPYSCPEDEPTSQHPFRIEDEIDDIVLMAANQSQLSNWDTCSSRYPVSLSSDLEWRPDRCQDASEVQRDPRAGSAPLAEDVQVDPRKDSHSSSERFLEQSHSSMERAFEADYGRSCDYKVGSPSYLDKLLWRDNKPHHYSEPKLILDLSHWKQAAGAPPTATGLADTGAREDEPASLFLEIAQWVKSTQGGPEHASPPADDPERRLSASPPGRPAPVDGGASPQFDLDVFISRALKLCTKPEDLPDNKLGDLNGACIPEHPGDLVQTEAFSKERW
Sequence of Phosphatidylinositol 5-phosphate 4-kinase type-2 gamma (Homo sapiens) (Q8TBX8 whole entry): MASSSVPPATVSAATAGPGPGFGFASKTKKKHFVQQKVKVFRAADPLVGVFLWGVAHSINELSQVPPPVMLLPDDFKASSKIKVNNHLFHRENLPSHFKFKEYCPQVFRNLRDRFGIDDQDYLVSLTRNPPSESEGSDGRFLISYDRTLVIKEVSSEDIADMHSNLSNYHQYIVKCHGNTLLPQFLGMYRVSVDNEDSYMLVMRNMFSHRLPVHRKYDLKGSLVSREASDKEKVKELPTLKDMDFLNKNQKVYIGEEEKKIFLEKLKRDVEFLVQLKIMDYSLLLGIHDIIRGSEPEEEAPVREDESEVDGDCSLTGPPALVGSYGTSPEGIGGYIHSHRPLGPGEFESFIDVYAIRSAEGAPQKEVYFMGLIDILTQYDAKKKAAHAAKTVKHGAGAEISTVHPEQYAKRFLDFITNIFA
Sequence of Bone morphogenetic protein receptor type-1B (Homo sapiens) (O00238 whole entry): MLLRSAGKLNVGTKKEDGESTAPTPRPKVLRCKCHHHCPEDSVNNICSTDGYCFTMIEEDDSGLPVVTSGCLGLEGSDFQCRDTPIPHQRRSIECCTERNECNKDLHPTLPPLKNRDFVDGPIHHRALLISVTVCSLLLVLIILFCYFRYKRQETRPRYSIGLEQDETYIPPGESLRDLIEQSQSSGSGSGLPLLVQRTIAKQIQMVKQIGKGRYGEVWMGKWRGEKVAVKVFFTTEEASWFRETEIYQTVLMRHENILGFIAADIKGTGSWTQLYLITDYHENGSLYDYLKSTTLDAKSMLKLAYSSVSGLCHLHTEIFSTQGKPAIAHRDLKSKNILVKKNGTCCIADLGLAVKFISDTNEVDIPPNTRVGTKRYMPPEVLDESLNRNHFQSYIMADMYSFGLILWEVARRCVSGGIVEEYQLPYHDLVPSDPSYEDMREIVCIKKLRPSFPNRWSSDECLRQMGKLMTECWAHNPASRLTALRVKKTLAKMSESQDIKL
Sequence of Calcium/calmodulin-dependent protein kinase type II subunit beta (Homo sapiens) (Q13554 whole entry): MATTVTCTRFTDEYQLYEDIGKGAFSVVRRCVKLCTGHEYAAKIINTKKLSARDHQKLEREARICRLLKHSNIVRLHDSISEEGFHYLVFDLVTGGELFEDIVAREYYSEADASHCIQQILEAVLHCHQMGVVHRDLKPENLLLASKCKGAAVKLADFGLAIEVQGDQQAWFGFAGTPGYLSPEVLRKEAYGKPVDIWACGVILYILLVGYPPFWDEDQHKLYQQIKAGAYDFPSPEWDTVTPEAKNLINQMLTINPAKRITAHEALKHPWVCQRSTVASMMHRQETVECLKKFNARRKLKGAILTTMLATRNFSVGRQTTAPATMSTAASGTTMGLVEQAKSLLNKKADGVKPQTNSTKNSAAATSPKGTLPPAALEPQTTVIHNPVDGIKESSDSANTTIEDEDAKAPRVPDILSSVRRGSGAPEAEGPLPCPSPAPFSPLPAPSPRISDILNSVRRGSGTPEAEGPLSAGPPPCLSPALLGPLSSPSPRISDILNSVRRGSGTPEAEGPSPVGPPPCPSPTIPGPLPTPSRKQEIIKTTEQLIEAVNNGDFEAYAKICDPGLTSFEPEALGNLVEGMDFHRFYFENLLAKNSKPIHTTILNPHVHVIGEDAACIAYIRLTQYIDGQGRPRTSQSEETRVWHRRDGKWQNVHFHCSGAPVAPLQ
Sequence of Platelet-derived growth factor receptor beta (Homo sapiens) (P09619 whole entry, canonical isoform): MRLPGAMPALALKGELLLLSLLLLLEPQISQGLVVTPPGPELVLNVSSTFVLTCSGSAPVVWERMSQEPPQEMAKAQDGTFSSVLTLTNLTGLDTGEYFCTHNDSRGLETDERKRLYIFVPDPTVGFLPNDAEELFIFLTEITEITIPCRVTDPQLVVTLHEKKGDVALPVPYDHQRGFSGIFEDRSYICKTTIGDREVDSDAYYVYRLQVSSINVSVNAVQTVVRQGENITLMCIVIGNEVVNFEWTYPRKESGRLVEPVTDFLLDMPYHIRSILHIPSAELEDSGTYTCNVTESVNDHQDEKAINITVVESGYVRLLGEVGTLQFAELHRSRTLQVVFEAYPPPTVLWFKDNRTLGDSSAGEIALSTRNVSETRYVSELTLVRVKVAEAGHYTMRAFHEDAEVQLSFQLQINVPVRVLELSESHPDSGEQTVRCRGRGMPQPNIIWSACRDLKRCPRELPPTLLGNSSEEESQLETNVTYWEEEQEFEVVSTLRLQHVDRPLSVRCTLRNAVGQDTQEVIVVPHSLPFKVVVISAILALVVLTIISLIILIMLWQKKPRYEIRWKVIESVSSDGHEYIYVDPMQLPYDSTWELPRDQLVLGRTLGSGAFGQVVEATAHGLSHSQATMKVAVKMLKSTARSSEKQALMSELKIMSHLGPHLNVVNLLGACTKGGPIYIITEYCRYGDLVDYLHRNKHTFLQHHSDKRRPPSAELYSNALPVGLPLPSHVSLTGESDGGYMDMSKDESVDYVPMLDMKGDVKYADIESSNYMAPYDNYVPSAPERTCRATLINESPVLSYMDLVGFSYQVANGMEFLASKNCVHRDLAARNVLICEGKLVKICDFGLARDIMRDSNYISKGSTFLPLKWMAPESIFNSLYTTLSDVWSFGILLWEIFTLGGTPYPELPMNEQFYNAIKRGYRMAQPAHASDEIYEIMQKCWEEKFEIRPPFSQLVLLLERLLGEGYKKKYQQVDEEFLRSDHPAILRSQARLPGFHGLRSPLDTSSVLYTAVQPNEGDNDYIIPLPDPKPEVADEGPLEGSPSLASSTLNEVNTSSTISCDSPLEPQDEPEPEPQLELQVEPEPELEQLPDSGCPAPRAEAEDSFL
Sequence of Dual specificity mitogen-activated protein kinase kinase 4 (Homo sapiens) (P45985 whole entry): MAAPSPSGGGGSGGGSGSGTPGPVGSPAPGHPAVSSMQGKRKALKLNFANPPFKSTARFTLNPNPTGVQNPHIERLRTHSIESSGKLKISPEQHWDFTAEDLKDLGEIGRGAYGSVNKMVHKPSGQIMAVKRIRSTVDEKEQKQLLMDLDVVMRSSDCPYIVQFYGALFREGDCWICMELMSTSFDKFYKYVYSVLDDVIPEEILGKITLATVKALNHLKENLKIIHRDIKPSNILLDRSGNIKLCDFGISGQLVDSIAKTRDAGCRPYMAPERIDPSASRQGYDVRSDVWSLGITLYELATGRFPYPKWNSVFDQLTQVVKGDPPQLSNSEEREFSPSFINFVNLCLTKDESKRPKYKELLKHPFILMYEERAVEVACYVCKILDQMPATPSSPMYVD
Sequence of Atypical kinase COQ8A, mitochondrial (Homo sapiens) (Q8NI60 163-647 limits assumed): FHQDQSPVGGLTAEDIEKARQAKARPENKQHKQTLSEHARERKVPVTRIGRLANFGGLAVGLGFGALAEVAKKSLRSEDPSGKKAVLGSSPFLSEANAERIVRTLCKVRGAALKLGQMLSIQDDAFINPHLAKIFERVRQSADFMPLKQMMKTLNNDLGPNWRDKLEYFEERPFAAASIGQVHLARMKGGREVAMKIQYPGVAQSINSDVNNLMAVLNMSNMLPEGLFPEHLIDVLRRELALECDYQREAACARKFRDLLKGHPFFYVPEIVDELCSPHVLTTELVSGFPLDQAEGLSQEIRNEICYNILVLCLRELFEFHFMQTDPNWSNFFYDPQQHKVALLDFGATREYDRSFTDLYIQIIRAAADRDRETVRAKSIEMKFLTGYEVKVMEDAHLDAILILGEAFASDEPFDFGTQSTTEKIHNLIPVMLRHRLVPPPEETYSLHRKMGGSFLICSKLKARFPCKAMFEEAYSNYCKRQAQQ
Sequence of Interleukin-1 receptor-associated kinase 1 (Homo sapiens) (P51617 whole entry, looked up): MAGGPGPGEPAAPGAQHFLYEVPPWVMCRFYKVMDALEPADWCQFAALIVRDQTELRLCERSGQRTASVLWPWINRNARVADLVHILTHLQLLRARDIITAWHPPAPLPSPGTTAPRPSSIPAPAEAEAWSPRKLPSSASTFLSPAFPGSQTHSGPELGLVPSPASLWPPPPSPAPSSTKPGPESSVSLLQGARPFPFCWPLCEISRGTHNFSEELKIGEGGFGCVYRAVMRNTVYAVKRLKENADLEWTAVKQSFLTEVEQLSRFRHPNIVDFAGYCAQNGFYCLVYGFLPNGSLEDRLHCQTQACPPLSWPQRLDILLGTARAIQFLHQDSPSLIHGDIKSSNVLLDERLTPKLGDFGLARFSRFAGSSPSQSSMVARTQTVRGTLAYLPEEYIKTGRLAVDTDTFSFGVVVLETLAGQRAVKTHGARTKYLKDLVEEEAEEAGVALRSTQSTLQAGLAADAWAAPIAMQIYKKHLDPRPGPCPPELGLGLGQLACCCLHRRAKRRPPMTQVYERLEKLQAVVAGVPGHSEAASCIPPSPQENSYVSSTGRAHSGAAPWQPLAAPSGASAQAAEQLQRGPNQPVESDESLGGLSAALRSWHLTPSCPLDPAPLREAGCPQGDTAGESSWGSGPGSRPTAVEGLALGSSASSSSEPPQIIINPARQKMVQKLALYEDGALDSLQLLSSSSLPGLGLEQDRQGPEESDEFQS

CN(C)C(=O)Cn1cc(-c2nc(C3(c4ccc(-c5cnc(N)nc5)cc4)CC3)no2)cn1 [BI 0153]
inactive: residual activity [1] 99% | residual activity [2] 99% | residual activity [3] 94% | residual activity [4] 100% | residual activity [5] 100% | residual activity [6] 77% | residual activity [7] 77% | residual activity [8] 89% | residual activity [9] 93% | residual activity [10] 94% | residual activity [11] 97% | residual activity [12] 76% | residual activity [13] 100% | residual activity [14] 75% | inhibition [15] -3.06% | inhibition [16] 13.9%

CN(C)C(=O)Cn1cc(-c2nc([C@@](C)(c3ccc(-c4cnc(N)nc4)cc3)C3CC3)no2)cn1 [BI 665915]
inactive: residual activity [1] 100% | residual activity [2] 76% | residual activity [3] 96% | residual activity [4] 85% | residual activity [5] 88% | residual activity [6] 85% | residual activity [7] 86% | residual activity [8] 100% | residual activity [9] 100% | residual activity [10] 82% | residual activity [11] 77% | residual activity [12] 79% | residual activity [13] 100% | residual activity [14] 79% | inhibition [15] -5.95% | inhibition [16] 4.68%
